Measurements from US20010038822A1, “Melanotropin analogs for potential radiopharmaceuticals for diagnosis and treatment of melanoma” (priority 1998, published 2001).
pEC50, pKi: −log10 of the molar value. Read-outs that look alike come from different tables or passages of the source. Positions of bridges follow the written chain, without caps; N, C: chain ends. Non-standard residues stand in square brackets, D forms with d. Residues, ends and D or L forms follow the SMILES beside them.

Tests used:
[1] = tested on: B16F1 murine melanoma cells; assay type: cell-based
Method: Peptide bioactivity was determined by measuring melanin released into cell culture media in an in vitro assay using B16F1 murine melanoma cells (Siegrist, W., 1986). Cells were incubated with various concentrations of peptide and assayed for melanin production by measuring the absorbance of the culture media at 405 nm. Absorbance values were compared to a standard curve obtained using synthetic melanin from Sigma. The standard curve was linear over the experimental range of absorbance values.

[2] = target: T1, α-MSH receptor on B16-F1 murine melanoma cells (Mus musculus, UniProt Q01727); test: Competitive receptor binding assay with ^125I-[Nle^4, D-Phe^7]-α-MSH
T1 construct: endogenous in cells; host or cells: B16-F1 murine melanoma cells
Method: Quantitative receptor binding assays were carried out following a previously described method (Siegrist W., 1988; Sahm, U. G., 1994). Cells were seeded at a density of 5×10^5 cells per well in 24 well tissue culture plates and exposed to varying concentrations of peptides on 0.5 mL of binding media (25 mM HEPES/NaOH pH=7.4, 0.2% BSA, 0.3 mM 1,10-phenanthroline, and approximately 100,000 CPM of ^125I-[Nle^4, D-Phe^7]-α-MSH) (36) at 4° C. for 8 hours. The cells were rinsed with PBS, lysed with 1 M NaOH and counted in a 1275 minigamma gamma counter from LKB Wallac.

[3] = Stabilities of tracer level complexes under challenge (10 mM cysteine / 0.05M phosphate); assay type: physicochemical
Method: ^99mTcO4^− was obtained from a ^99Mo/^99mTc generator produced by Mallinckrodt, Inc. ^188Re was obtained from a ^188W/^188Re generator produced by the University of Missouri research reactor. Radiolabeled peptides were prepared by substitution onto either ^99mTc- or ^188Re-glucoheptonate. For ^188Re complexes, 500 μL of generator eluant was added to a tube containing 50 mg Na-glucoheptonate and 10 mg SnCl2.2H2O dissolved in 200 μL N2-purged 5% disodium-EDTA and heated at 70-80° C. for 0.5 hour. 50 μL of a 1 mg/mL peptide solution was then added, the pH was adjusted to 7-8 with 0.5 N NaOH, and the mixture was allowed to incubate for 90 minutes. at 70-80° C. Syntheses of ^99mTc-labeled peptides differed only in that they were carried out at 25° C. using a 10-fold lower concentration of SnCl2.2H2O.

T1 sequence (Q01727 whole entry): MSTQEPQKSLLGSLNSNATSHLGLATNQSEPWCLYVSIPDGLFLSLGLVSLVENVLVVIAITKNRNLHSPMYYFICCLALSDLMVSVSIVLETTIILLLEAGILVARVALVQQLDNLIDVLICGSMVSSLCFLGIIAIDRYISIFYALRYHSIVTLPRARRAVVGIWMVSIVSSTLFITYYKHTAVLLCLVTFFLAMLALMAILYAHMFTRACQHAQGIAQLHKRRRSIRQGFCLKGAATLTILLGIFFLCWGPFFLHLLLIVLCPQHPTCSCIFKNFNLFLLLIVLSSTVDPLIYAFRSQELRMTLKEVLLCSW

## CC(=O)N[C@H]1CSSC[C@@H](C(=O)N[C@@H](CCCCN)C(=O)N2CCC[C@H]2C(=O)N[C@H](C(N)=O)C(C)C)NC(=O)[C@H](Cc2c[nH]c3ccccc23)NC(=O)[C@H](CCCNC(=N)N)NC(=O)[C@@H](Cc2ccccc2)NC(=O)[C@H](Cc2c[nH]cn2)NC(=O)[C@H](CCC(=O)O)NC1=O [APOMSH, NA-Cys-Glu-His-D-Phe-Arg-Trp-Cys-Lys-Pro-Val-NH2, reference compound] (Ac-CEH[dF]RWCKPV-NH2; disulfide 1-7)
[1]
  pEC50: 10.59
[2]; B16-F1 murine melanoma cells, read-out: Ki
  pKi: 9.17

## rhenium complex of NAc-Cys-Cys-Glu-His-D-Phe-Arg-Trp-Cys-Lys-Pro-Val-NH2, APOMSH analog with additional N-terminal Cys [ReCCMSH]
[1]; B16-F1 murine melanoma cells, read-out: EC50 melanin synthesis
  pEC50: 10.46
[1]; compared with APOMSH
  ability to stimulate melanin production: almost identical to APOMSH
[2]
  receptor binding affinity higher than that of ReMSH: approximately 25 fold
[2]; read-out: receptor binding affinity
  pKi: 8.54

## CC(=O)N[C@@H](CS)C(=O)N[C@@H](CCC(=O)O)C(=O)N[C@@H](Cc1c[nH]cn1)C(=O)N[C@H](Cc1ccccc1)C(=O)N[C@@H](CCCNC(=N)N)C(=O)N[C@@H](Cc1c[nH]c2ccccc12)C(=O)N[C@@H](CS)C(=O)N[C@@H](CCCCN)C(=O)N1CCC[C@H]1C(=O)N[C@H](C(N)=O)C(C)C (188Re complex, metal not drawn) [^188ReMSH] (Ac-CEH[dF]RWCKPV-NH2)
[3]; 10 mM Cysteine challenge, 4 hrs
  Stability of tracer level complex: 48.9%
[3]; 10 mM Cysteine challenge, 24 hrs
  Stability of tracer level complex: 34.0%
[3]; 0.05M Phosphate challenge, 4 hrs
  Stability of tracer level complex: 90.3%
[3]; 0.05M Phosphate challenge, 24 hrs
  Stability of tracer level complex: 66.4%
[3]; 0.05M phosphate with 10 mM cysteine, in competition with 10 mM free cysteine, read-out: t½ (converted)
  half-life: ~4 h
